Here are results for eight compounds from PubChem BioAssay (NCI).

Molecules are shown by their SMILES.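 Each compound was tested at five concentrations against cells in 96-well plates for 48 hours. GI50: concentration for 50% inhibition of growth. TGI is the concentration that stops growth completely.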

Experiment in all cases: NCI anticancer screen, dose series, 48 h
For assay [1], the system named is HOP-92 NSCLC.
Assay [2] concerns MALME-3M melanoma.
The test system of assay [3] is HOP-62 NSCLC.
Assay [4] concerns SN12C renal.
The subject of assay [5] is OVCAR-5 ovarian.
For assay [6], the system named is HCT-116 colon.
For assay [7], the system named is M14 melanoma.
Assay [8] has as its system OVCAR-4 ovarian.
The subject of assay [9] is OVCAR-8 ovarian.
Assay [10] concerns SK-MEL-28 melanoma.

In the case of `CC1(C)SC2C(C(=O)O)N=C(Cc3ccccc3)N2C1C(=O)O` (stereo not drawn), the TGI in [1], in [2], in assay [3], in assay [4], in [5] and in assay [6] was greater than 100 µM in each case. Moreover, the TGI in assay [7], in [8], in assay [9] and in [10] was greater than 100 µM throughout.

With `CC(=O)CC(=O)N(CCN(C(=O)CC(C)=O)c1ccccc1)c1ccccc1`, the TGI in [1], in assay [2], in assay [3], in assay [4], in assay [5] and in assay [6] was greater than 100 µM throughout. In addition, the TGI in [7], in assay [8], in assay [9] and in assay [10] was greater than 100 µM each time.

Regarding `C[C@]12CCC3c4ccc(OC(=O)c5ccccc5)cc4CC[C@H]3C1CC[C@@H]2OC(=O)C12OC1CCC2=O` (stereo partly drawn), the TGI came out at 35.6 µM in assay [1]; 13.3 µM in assay [2]; 11.9 µM in [3]; 11.9 µM in assay [4]; 21.4 µM in [5]; 7.18 µM in [6]. Moreover, the TGI in assay [7] was determined as 12 µM; in [8] it was 10.6 µM; in assay [9] it was 31.3 µM; in [10] it was 10.7 µM.

In the case of `Nc1nc(N)c2nc(CNc3ccc(C(=O)CC(CCC(=O)O)C(=O)O)cc3)cnc2n1` (stereo not drawn), the GI50 in [1] was greater than 100 µM; in assay [2], 1.43 µM; in assay [3] it was 0.127 µM; in [4], 0.18 µM; in assay [6], less than 0.0185 µM; in [7], 0.202 µM. The GI50 in assay [9] was 0.166 µM; in assay [10], greater than 50.7 µM. Moreover, the TGI in assay [1], in assay [2], in [3], in assay [4], in [5] and in assay [6] was greater than 100 µM in each case. Moreover, the TGI in [7], in [8], in assay [9] and in [10] was greater than 100 µM throughout.

For `O=C1c2ccccc2C(=O)N1/N=C\c1ccc(Br)cc1`, the GI50 in assay [1], in assay [2], in assay [3], in assay [4], in assay [5] and in assay [6] was greater than 100 µM in each case. For the same compound, the GI50 in assay [7], in assay [8], in [9] and in assay [10] was greater than 100 µM in each case. In addition, the TGI in [1], in assay [2], in [3], in assay [4], in assay [5] and in [6] was greater than 100 µM throughout. Also, the TGI in assay [7], in assay [8], in [9] and in assay [10] was greater than 100 µM in each case.

On to `Nc1ncc(-c2cnn(C3CCNCC3)c2)cc1-c1nc2ccccc2o1`, for which the GI50 in assay [1] was 0.553 µM; in [2], 1.72 µM; in assay [3] it was 0.915 µM; in assay [4], 0.478 µM; in [5], 3.28 µM; in assay [6] it was 0.616 µM. Also, the GI50 in [7] is 1.21 µM; in assay [8], 1.3 µM; in assay [9], 2.59 µM; in assay [10], 1.74 µM. Besides, the TGI in [1] amounted to 2.05 µM; in [2], 3.37 µM; in assay [3], 5.19 µM; in [4], 4.41 µM; in [5], 11.5 µM; in assay [6], 2.03 µM. The TGI came to 2.54 µM in assay [7], 3.53 µM in assay [8], 8.9 µM in assay [9] and 3.17 µM in assay [10].

Take `CCCC(OCC)(OCC)OCC`: the TGI in assay [1], in [2], in [3], in [4], in assay [5] and in assay [6] was greater than 100 µM in each case. Further, the TGI in assay [7], in assay [8], in [9] and in assay [10] was greater than 100 µM in each case.

As to `CS(=O)(=O)c1ccc(N/N=C/c2c(-c3ccc(S(C)(=O)=O)cc3)[nH]c3ccc(F)cc23)cc1`, the GI50 in assay [1] is 2.18 µM; in assay [2], 1.34 µM; in assay [3] it was 2.17 µM; in assay [4], 2.97 µM; in assay [5], greater than 50 µM; in assay [6], 2.68 µM. Further, the GI50 was 2.16 µM in [7], 1.97 µM in assay [8], 1.24 µM in [9] and 1.59 µM in [10]. The TGI in assay [1] is greater than 50 µM; in assay [2], 4.38 µM; in [3], greater than 50 µM; in assay [4], greater than 50 µM; in assay [5] it was greater than 50 µM; in assay [6] it was greater than 50 µM. Also, the TGI in assay [7], in assay [8], in assay [9] and in assay [10] was greater than 50 µM throughout.
